Earlier results on 3 compounds are cited in US9221029B2, “Automatic system for synthesizing 123I-MIBG and automatic device for synthesizing and dispensing 123I-MIBG comprising the same” (Institute of Nuclear Energy Research Atomic Energy Council, …, priority 2013, dated 2015).

Data set [1] relates to tumors (neuroblastoma cells). The settings on record: after false-positive and false-negative imaging results are ruled out.
The conditions of data set [2]: used for diagnosis.
In data set [3] the test system is neuroblastoma. The settings on record: 21 neuroblastoma patients; especially at bones.
A further data set deals with neuroblast. The settings on record: after intravenous injection.
Data set [4] relates to neuroblastoma. The settings on record: in vivo.
For data set [5] the following is noted: despite the use of oral potassium iodide (KI).
The conditions of data set [6]: ranging from 15 minutes to 48 hours.

Where two headings read alike, the source gives them in different places.

In the case of `N=C(N)NCc1cccc([123I])c1` [^123I-MIBG, iodine-123 meta-iodobenzylguanidine], in data set [1], the “specifically bound to tumors” value was about 100%. For the same compound, in data set [2], the “patients with accumulated ^123I-MIBG in salivary glands” value is on record as 92-100%.

Take `N=C(N)NCc1cccc(I)c1` [MIBG, meta-iodobenzylguanidine]: in the data set on neuroblastoma [3], the “sensitivity of imaging compared with FDG-PET” value is recorded as “higher sensitivity”. Also, in the data set on neuroblast, the gathered in neuroblast was 90%.

Take `N=C(N)NCc1cccc([131I])c1` [^131I-MIBG]: the “excreted out of the body through urine” value by setting is: (24 hours after injection) 57%; (48 hours after injection) 70%. Besides, the “still exists in the blood” value (one hour after injection, neuroblastoma patients) was at most 10%. Besides, the “treatment effective rate on neuroblastoma” value with neuroblastoma [4] is 30-40%. Besides, the “side effects of therapy” value in data set [5] is listed as “hypothyroidism still occurs”. In data set [6], the saliva-to-plasma ratio result is “greater than 1.0”.
